biological target: Human Factor D (purified from human serum) (Homo sapiens (Human), UniProt P00746); assay: Human Factor D Assay; type: biochemical; conditions: Human Factor D 80 nM, substrate Z-L-Lys-SBzl, assay of Example 2; read-out: IC50 (Stars)
Procedure: The assay of Example 2 was used to determine the IC50's of the compounds. Other standard Factor D inhibition assays are also available.
Human Factor D (purified from human serum, Complement Technology, Inc.) at 80 nM final concentration is incubated with test compound at various concentrations for 5 min at room temperature in 50 mM Tris, 1M NaCl, pH 7.5. A synthetic substrate Z-L-Lys-SBzl and DTNB (Ellman's reagent) are added to final concentrations of 100 μM each. Absorbance at 405 nm (A405) is recorded at 30 second intervals for 30 minutes using a microplate spectrophotometer. IC50 values are calculated by nonlinear regression of Complement Factor D reaction rates as a function of test compound concentration.

Chain of Human Factor D (purified from human serum) (P00746 26-253): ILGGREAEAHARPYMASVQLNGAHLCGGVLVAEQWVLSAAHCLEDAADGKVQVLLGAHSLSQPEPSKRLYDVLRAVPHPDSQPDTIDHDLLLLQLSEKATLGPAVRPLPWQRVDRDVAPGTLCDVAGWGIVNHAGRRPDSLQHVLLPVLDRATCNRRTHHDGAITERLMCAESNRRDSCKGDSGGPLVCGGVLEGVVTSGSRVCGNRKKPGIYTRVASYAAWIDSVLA

| Molecule | IC50 [µM] |
| --- | --- |
| (41R,43S,45R)-42-(2-(3-acetyl-5-(2-methylpyrimidin-5-yl)-1H-indazol-1-yl)acetyl)-16-bromo-6-methyl-7-thia-42,6-diaza-1(2,3)-pyridina-4(3,5)-bicyclo[3.1.0]hexanacycloundecaphan-10-en-3-one 7,7-dioxide [Compound T-17] | < 1 |

same assay, conditions: Human Factor D 80 nM, substrate Z-L-Lys-SBzl; Table 6; read-out: IC50

| IC50 [µM] | Molecule |
| --- | --- |
| < 1 | CC(=O)c1nn2c3c(cc(-c4cnc(C)nc4)cc13)CCCCCCC(=O)NC[C@@]13C[C@@H](C(=O)Nc4nc(Br)ccc4F)N(C(=O)C2)[C@@H]1C3 [Compound T-230, (41R,43S,45R)-13-acetyl-N-(6-bromo-3-fluoropyridin-2-yl)-15-(2-methylpyrimidin-5-yl)-3,7-dioxo-11H-42,6-diaza-1(1,7)-indazola-4(2,5)-bicyclo[3.1.0]hexanacyclotridecaphane-43-carboxamide] |
| < 1 | CC(=O)c1nn2c3c(cc(-c4cnc(C)cn4)cc13)CC=CCCCC(=O)NC[C@@]13C[C@@H](C(=O)Nc4nc(C(F)(F)F)ccc4C)N(C(=O)C2)[C@@H]1C3 [Compound T-219, (41R,43S,45R)-13-acetyl-N-(3-methyl-6-(trifluoromethyl)pyridin-2-yl)-15-(5-methylpyrazin-2-yl)-3,7-dioxo-11H-42,6-diaza-1(1,7)-indazola-4(2,5)-bicyclo[3.1.0]hexanacyclotridecaphan-11-ene-43-carboxamide] |
| < 1 | CC(=O)c1nn2c3c(cc(-c4cnc(C)nc4)cc13)CCCCCCC(=O)NC[C@@]13C[C@@H](C(=O)Nc4cc(Br)ccc4C4CC4)N(C(=O)C2)[C@@H]1C3 [Compound T-212, (41R,43S,45R)-13-acetyl-N-(6-bromo-3-cyclopropylpyridin-2-yl)-15-(2-methylpyrimidin-5-yl)-3,7-dioxo-11H-42,6-diaza-1(1,7)-indazola-4(2,5)-bicyclo[3.1.0]hexanacyclotridecaphane-43-carboxamide] |

same assay, conditions: Human Factor D 80 nM, substrate Z-L-Lys-SBzl; Table 6; read-out: IC50 (Stars)

| Molecule | IC50 [µM] |
| --- | --- |
| CC(=O)c1nn2c3c(cc(-c4cnc(C)nc4)cc13)CCCCCC(C)(C)C(=O)N(C)C[C@@]13C[C@@H](C(=O)Nc4nc(C(F)(F)F)ccc4C)N(C(=O)C2)[C@@H]1C3 [Compound T-186, (41R,43S,45R)-13-acetyl-6,8,8-trimethyl-N-(3-methyl-6-(trifluoromethyl)pyridin-2-yl)-15-(2-methylpyrimidin-5-yl)-3,7-dioxo-11H-42,6-diaza-1(1,7)-indazola-4(2,5)-bicyclo[3.1.0]hexanacyclotridecaphane-43-carboxamide] | < 1 |
| Cc1ncc(-c2cc3c(C#N)nn4c3c(n2)CCCC=CCOC[C@@]23C[C@@H](C(=O)Nc5nc(C(F)(F)F)ccc5C)N(C(=O)C4)[C@@H]2C3)cn1 [Compound T-154, (41R,43S,45S)-13-cyano-N-(3-methyl-6-(trifluoromethyl)pyridin-2-yl)-15-(2-methylpyrimidin-5-yl)-3-oxo-11H-6-oxa-42-aza-1(1,7)-pyrazolo[3,4-c]pyridina-4(2,5)-bicyclo[3.1.0]hexanacyclododecaphan-8-ene-43-carboxamide] | < 1 |

More lines, now with the values ahead:

| IC50 [µM] | Molecule |
| --- | --- |
| < 1 | CC(=O)c1nn2c3c(nc(-c4cnc(C)nc4)cc13)CCCCCC(=O)NC[C@@]13C[C@@H](C(=O)Nc4nc(C(F)(F)F)ccc4C)N(C(=O)C2)[C@@H]1C3 [Compound T-124, (41R,43S,45R)-13-acetyl-N-(3-methyl-6-(trifluoromethyl)pyridin-2-yl)-15-(2-methylpyrimidin-5-yl)-3,7-dioxo-11H-42,6-diaza-1(1,7)-pyrazolo[3,4-c]pyridina-4(2,5)-bicyclo[3.1.0]hexanacyclododecaphane-43-carboxamide] |
| < 1 | CC(=O)c1nn2c3c(nc(-c4cnc(C)nc4)cc13)CCCCCCC(=O)NC[C@@]13C[C@@H](C(=O)Nc4nc(Br)ccc4C)N(C(=O)C2)[C@@H]1C3 [Compound T-166, (41R,43S,45R)-13-acetyl-N-(6-bromo-3-methylpyridin-2-yl)-15-(2-methylpyrimidin-5-yl)-3,7-dioxo-11H-42,6-diaza-1(1,7)-pyrazolo[3,4-c]pyridina-4(2,5)-bicyclo[3.1.0]hexanacyclotridecaphane-43-carboxamide] |
| < 1 | CC(=O)c1cn2c3c(cc(-c4cnc(C)nc4)cc13)CCCCCCC(=O)NC[C@@]13C[C@@H](C(=O)Nc4nc(C(F)(F)F)ccc4C)N(C(=O)C2)[C@@H]1C3 [Compound T-159, (41R,43S,45R)-13-acetyl-N-(3-methyl-6-(trifluoromethyl)pyridin-2-yl)-15-(2-methylpyrimidin-5-yl)-3,7-dioxo-11H-42,6-diaza-1(1,7)-indola-4(2,5)-bicyclo[3.1.0]hexanacyclotridecaphane-43-carboxamide] |

From patent US11718626B2, “Macrocyclic compounds for treatment of medical disorders” (Achillion Pharmaceuticals, Inc., priority 2017, dated 2023)
